13 molecules from patent US20250109139A1, “TRICYCLIC COMPOUND, AND PREPARATION METHOD THEREFOR AND USE THEREOF” (SHANGHAITECH UNIVERSITY, priority 2022, published 2025) can be followed below.

Where two headings read alike, the source gives them in different places.

In experiment [1] the target is T1, 5-hydroxytryptamine 1A (5-HT1A) receptors (Homo sapiens (Human), UniProt P08908). The experiment in a line: 5-HT1A receptor β-arrestin2 BRET (recruitment). The class given is cell-based. As to conditions: for Emax: relative to endogenous ligand 5-hydroxytryptamine. On the procedure: At the same time, in order to examine the downstream β-arrestin2 signaling pathway mediated by 5-HT1A receptors, on the first day, a 6 cm culture dish was used for transfection with 500 ng of 5-HT1A receptors containing C-terminal seaweed luciferase (5HT1AR-Rluc), 500 ng of G protein-coupled receptor kinase 2 (GRK2), 2500 ng of β-arrestin2 containing N-terminal green fluorescent protein (GFP2-ARRB2), and 14 μL of PEI. The next day, the confluent cells of a 6 cm culture dish were digested and reseeded into a 96-well plate with 100 μL of culture medium added to each well. On the third day, the drugs were added for test. The 96-well plate was taken out from the cell incubator to decant the culture medium, 40 µL of the substrate coelenterazine 400a (final concentration of 5 μM) was added to each well, and then 20 μL of different drugs were added sequentially from left to right to ensure that the final concentration of the drug decreased gradually from bottom to top, with two replicates per treatment. Finally, the prepared samples were loaded on machine for test. The machine readout value reflected the recruitment of β-arrestin2 to the membrane or the dissociation of G protein trimer. The former indicated the degree of activation of the β-arrestin2 signaling pathway downstream of the 5-HT1 serotonin 1A receptors, and the latter indicated the degree of activation of the G protein signaling pathway downstream of the serotonin 1A receptors.
T1 sequence (P08908 whole entry): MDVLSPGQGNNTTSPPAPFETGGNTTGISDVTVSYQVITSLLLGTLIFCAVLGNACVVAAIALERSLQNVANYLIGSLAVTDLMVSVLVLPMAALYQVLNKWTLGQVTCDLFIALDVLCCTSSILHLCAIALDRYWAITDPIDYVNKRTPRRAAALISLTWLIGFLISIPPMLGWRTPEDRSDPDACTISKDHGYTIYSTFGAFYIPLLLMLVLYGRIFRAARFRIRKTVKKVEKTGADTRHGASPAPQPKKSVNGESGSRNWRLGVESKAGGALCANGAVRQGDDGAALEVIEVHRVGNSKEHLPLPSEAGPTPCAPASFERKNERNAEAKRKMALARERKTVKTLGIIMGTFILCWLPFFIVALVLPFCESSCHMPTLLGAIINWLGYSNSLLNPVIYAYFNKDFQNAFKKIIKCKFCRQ
A general note: In BRET a luciferase serves as donor, and the signal depends on an acceptor being close.

For the next experiment, the target named is 5-HT2A receptors (Homo sapiens (Human), UniProt P28223). As to the kind of experiment: 5-HT2A receptor radioligand competition binding assay ([3H]-ketanserin). On the procedure:
The affinity of the compounds of the present disclosure for 5-HT2A receptors was determined by a radioligand competition binding assay. In the first step, a cell membrane component containing specific 5-HT2A receptor was prepared. A 10 cm dish was used for transfection with […] of 5-HT2A receptors and 40 μL of PEI. After 48 hours, the 10 cm dish was taken out from the cell incubator and the cultured cells had expressed the 5-HT2A receptors. A vacuum pump was used to suck off the culture medium, 3 mL of lysis buffer was added to each culture dish, and the cells were placed in a 4° C. cold room for 10 minutes. After the cells were detached, the cells were transferred to a 15 mL centrifuge tube and centrifuged at 1500 rpm for 5 minutes at 4° C., and the supernatant was discarded. The cell pellet was transferred to a tissue homogenizer, and 3 mL of lysis buffer was added and fully ground until the cells were broken. Then, cell suspension was equally aliquoted into several EP tubes, centrifuged at 12000 rpm for 5 minutes at 4° C., and the supernatant was discarded. The precipitate was the cell membrane component containing the 5-HT2A receptors. […] First, a standard binding buffer was added to the cell membrane component containing the 5-HT2A receptors, and the cell membrane was disrupted and resuspended with an electric tissue homogenizer. 30 μL of membrane protein suspension was added to each well of a 96-well plate. Then, 30 μL of different drugs were added to the 96-well plate sequentially from bottom to top to ensure that the final drug concentrations were 10^−5 M, 10^−6 M, 10^−7 M, 10^−8 M, 10^−9 M, and 0 M, with two replicates per treatment. Next, 30 μL of [^3H]-ketanserin was added to each well of the 96-well plate. The plate was incubated at room temperature in the dark for 2 hours. Detection was conducted. The machine readout value reflected the amount of [^3H]-ketanserin bound on the membrane, and after further data processing, the affinity Ki values of different compounds for the 5-HT2A receptors were obtained.
In general terms: Loss of bound radioactivity is the signal in a displacement assay; it reports binding, not function.

Experiment [2] concerns MK801-induced hyperlocomotion in mice. As to the kind of experiment: Open field test, MK801-induced hyperlocomotion (schizophrenia-like model). In kind it is in vivo, C57B6 male mice. On the procedure:
Experimental method: The experimental animals were C57B6 male mice, n=8 in each group. In this model, C57B6 mice were used as experimental animals. Hyperlocomotion of the mice in open field was induced by acute injection of a NMDA antagonist MK801, and modeled to test the inhibitory effect of different compounds on hyperlocomotion phenotype induced by MK801 All mouse behavior experiments were carried out during the light period. The whole process was recorded by the camera, and locomotive data were tracked and analyzed by behavioral tracking software. The compounds were administered intraperitoneally. Immediately after the injection, the mice entered the open field and their movement trajectories were recorded by the camera. After 30 minutes, the mice received 0.2 mg/kg of MK801 by intraperitoneal injection and returned to the open field immediately after administration, and the movement trajectories were further recorded for 120 minutes. The accumulative travelled distance of the mice was counted in a 5-minute bin. Data statistics were performed using Student-t-test analysis, *p<0.05, **p<0.01, ***p<0.001, ****p<0.0001. The total travelled distance of the mice in the 0-45 minute interval after administration of the compounds of the present disclosure at different doses in combination with MK801 (0.2 mg/kg) is shown in Table 10.

Experiment [3] addresses T2, dopamine D2 receptors (Homo sapiens (Human), UniProt P14416). As to the kind of experiment: Dopamine D2 receptor β-arrestin2 BRET (recruitment). The class given is cell-based. The conditions noted are these: for EC50: unit printed only in Cariprazine cell, read-out: β-arrestin2 BRET EC50; for Emax: relative to endogenous ligand dopamine, read-out: β-arrestin2 BRET Emax % ± SEM. In short, it runs like this:
(§1)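 G-protein assay: cells co-transfected with D2 receptor, Gαi1-Rluc, Gβ3 and Gγ9-GFP (1 μg each); β-arrestin2 assay: D2-Rluc, GRK2 and GFP2-β-arrestin2 co-transfected. Cells were reseeded after one day and tested on day three. Drug dilution series were added in duplicate with coelenterazine 400a (5 μM final), and the BRET signal was read.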

The target in experiment [4] is T2, dopamine D2 receptors. The experiment in a line: Dopamine D2 receptor radioligand competition binding assay ([3H]-Methylspiperone). As to conditions: [3H]-Methylspiperone 0.3 to 0.5 nM, 293T membranes. An outline of the steps: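 Membranes from cells transfected with human D2 receptor, PEI-mediated; competition with [3H]-methylspiperone for 2 h at room temperature in the dark.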

Experiment [5] concerns the target T1, 5-hydroxytryptamine 1A (5-HT1A) receptors. As to the kind of experiment: 5-HT1A receptor Gαi1 BRET (G protein trimer dissociation). In kind it is cell-based. As to conditions: relative to endogenous ligand 5-hydroxytryptamine.
Experiment [6] deals with T2, dopamine D2 receptors. The experiment in a line: Dopamine D2 receptor Gαi1 BRET (G protein trimer dissociation). In kind it is cell-based. As to conditions: for Emax: relative to endogenous ligand dopamine, read-out: Gαi1 BRET Emax % ± SEM. An outline of the steps: as §1
[7] abbreviates: [3H]-ketanserin, 293T membranes, read-out: Ki.
Where [8] appears, read: read-out: Gαi1 BRET pEC50 ± SEM (converted).
[9] abbreviates: unit printed only in Cariprazine cell, read-out: Gαi1 BRET EC50.

5-HT2A receptors, sequence (P28223 whole entry): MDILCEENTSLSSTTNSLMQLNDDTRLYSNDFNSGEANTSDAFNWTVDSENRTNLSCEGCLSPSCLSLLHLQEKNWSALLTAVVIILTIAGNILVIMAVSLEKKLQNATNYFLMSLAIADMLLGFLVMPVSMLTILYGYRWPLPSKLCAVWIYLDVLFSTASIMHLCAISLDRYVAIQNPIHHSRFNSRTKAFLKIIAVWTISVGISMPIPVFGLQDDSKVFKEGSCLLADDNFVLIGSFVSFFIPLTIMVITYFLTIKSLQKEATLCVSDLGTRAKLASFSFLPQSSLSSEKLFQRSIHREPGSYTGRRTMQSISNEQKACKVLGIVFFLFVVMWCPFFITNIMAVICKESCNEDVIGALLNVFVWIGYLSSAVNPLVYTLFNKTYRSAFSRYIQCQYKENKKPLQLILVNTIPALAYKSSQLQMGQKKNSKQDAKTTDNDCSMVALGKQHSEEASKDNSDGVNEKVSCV
T2 sequence (P14416 whole entry): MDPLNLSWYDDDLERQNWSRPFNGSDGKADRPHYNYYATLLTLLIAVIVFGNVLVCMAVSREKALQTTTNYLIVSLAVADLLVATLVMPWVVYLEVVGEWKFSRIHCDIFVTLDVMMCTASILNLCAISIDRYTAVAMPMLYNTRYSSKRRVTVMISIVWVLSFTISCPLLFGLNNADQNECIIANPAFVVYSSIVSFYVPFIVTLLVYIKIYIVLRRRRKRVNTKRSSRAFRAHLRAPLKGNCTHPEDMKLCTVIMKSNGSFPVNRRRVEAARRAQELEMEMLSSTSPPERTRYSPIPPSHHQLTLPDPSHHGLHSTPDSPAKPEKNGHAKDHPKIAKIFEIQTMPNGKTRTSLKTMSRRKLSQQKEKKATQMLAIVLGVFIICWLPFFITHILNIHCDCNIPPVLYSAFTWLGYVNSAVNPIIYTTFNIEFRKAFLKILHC

As to `CN(C)C(=O)N[C@H]1CC[C@H](CCN2CCN(c3cccc(Cl)c3Cl)CC2)CC1` [Cariprazine, reference compound], in experiment [1], the “β-arrestin2 BRET EC50” value is reported as “Inactive”.

On to `COc1cccc2c3c(oc12)CN(CCCCOc1ccc2c(c1)NC(=O)CC2)CC3` [I-A2, 7-(4-(8-methoxy-3,4-dihydrobenzofuro[2,3-c]pyridin-2(1H)-yl)butoxy)-3,4-dihydroquinolin-2(1H)-one], for which the “affinity for 5-HT2A receptors (in words)” value at 5-HT2A receptors is recorded as “very weak affinity”. For the same molecule, the “pKi ± SEM” value at 5-HT2A receptors ([3H]-ketanserin, 293T membranes) was “(5.95 ± 0.05)”. In addition, the Ki on 5-HT2A receptors (setting [7]) came to 1110 nM. The “Distance travelled in 45 minutes” value stood at 8795.03 cm in experiment [2] (MK801 0.2 mg/kg + compound 1 mg/kg i.p.), 6152.62 cm in experiment [2] (MK801 0.2 mg/kg + compound 4 mg/kg i.p.) and 3028.99 cm in experiment [2] (MK801 0.2 mg/kg + compound 16 mg/kg i.p.).

A word on the Emax: it is the size of the effect at its maximum, as opposed to the concentration needed. `CCOc1cccc2c3c(oc12)CN(CCCCOc1ccc2ccc(=O)[nH]c2c1)CC3` [I-A16, 7-(4-(8-ethoxy-3,4-dihydrobenzofuro[2,3-c]pyridin-2(1H)-yl)butoxy)quinolin-2(1H)-one]: on 5-HT2A receptors, the Ki was 1320 nM and the “affinity for 5-HT2A receptors (in words)” value is “very weak affinity”. On dopamine D2 receptors [3], the “β-arrestin2 BRET pEC50 ± SEM” value is “(7.94 ± 0.11)” and the EC50 was 11.3 nM. In addition, the “Affinity pKi ± SEM” value on dopamine D2 receptors [4] is “(7.78 ± 0.41)”. Further, the Ki at dopamine D2 receptors [4] (read-out: Affinity Ki) came to 16.5 nM. The molecule further showed an Emax in experiment [5] of 85.9%.

For the molecule `COc1cccc2c3c(oc12)CN(CC1(O)CCCCC1)CC3` [I-A21, 1-((8-methoxy-3,4-dihydrobenzofuro[2,3-c]pyridin-2(1H)-yl)methyl)cyclohexan-1-ol], the “affinity for 5-HT2A receptors (in words)” value at 5-HT2A receptors is reported as “very weak affinity”. Moreover, the Ki on 5-HT2A receptors (setting [7]) was above 10000 nM; at dopamine D2 receptors [4] (read-out: Affinity Ki), 524 nM. For the same molecule, the Emax is 59% on dopamine D2 receptors [3] and 68% at dopamine D2 receptors [6]. The EC50 on dopamine D2 receptors [3] was 23.6 nM; at dopamine D2 receptors [6] (setting [8]), 2.95 nM; on dopamine D2 receptors [6] (setting [9]) it was 4.61 nM. At dopamine D2 receptors [4], the “Affinity pKi ± SEM” value is recorded as “(6.28 ± 0.28)”.

Turning to `CCOc1cccc2c3c(oc12)CN(CC1(O)CCCCC1)CC3` [I-A28, 1-((8-ethoxy-3,4-dihydrobenzofuro[2,3-c]pyridin-2(1H)-yl)methyl)cyclohexan-1-ol], the “affinity for 5-HT2A receptors (in words)” value at 5-HT2A receptors is “very weak affinity”. In addition, the Ki at 5-HT2A receptors (setting [7]) is above 10000 nM; on dopamine D2 receptors [4] (read-out: Affinity Ki), 103 nM. The maximal response (Emax) on dopamine D2 receptors [3] was determined as 82%; at dopamine D2 receptors [6] it was 27%. The EC50 is 238 nM on dopamine D2 receptors [3], 44.7 nM on dopamine D2 receptors [6] (setting [8]) and 32.5 nM on dopamine D2 receptors [6] (setting [9]). The “Affinity pKi ± SEM” value at dopamine D2 receptors [4] was “(6.99 ± 0.21)”.

As for `CCOc1cccc2c3c(oc12)CN(CCCCOc1ccc2c(c1)NC(=O)CO2)CC3` [I-A30, 6-(4-(8-ethoxy-3,4-dihydrobenzofuro[2,3-c]pyridin-2(1H)-yl)butoxy)-2H-benzo[b][1,4]oxazin-3(4H)-one], on dopamine D2 receptors [3], the Emax was 52% and the EC50 came out at 23.7 nM. Moreover, at dopamine D2 receptors [4] (read-out: Affinity Ki), the Ki is 151 nM. Further, in experiment [5], the maximal response (Emax) worked out at 74.5%.

With `CCOc1cccc2c3c(oc12)CN(CCNC(=O)C1CCCC1)CC3` [I-A33, N-(2-(8-ethoxy-3,4-dihydrobenzofuro[2,3-c]pyridin-2(1H)-yl)ethyl)cyclopentanecarboxamide], the maximum response (Emax) in experiment [1] was determined as 25.2%; on dopamine D2 receptors [3], 18%; in experiment [5], 96.7%. Further, the EC50 at dopamine D2 receptors [3] worked out at 56.7 nM.

`CCOc1cccc2c3c(oc12)CN(CCC1CC(NC(=O)N(C)C)C1)CC3` (stereo not shown) [I-A34, 3-(3-(2-(8-ethoxy-3,4-dihydrobenzofuro[2,3-c]pyridin-2(1H)-yl)ethyl)cyclobutyl)-1,1-dimethylurea]: the figures for the Emax (on dopamine D2 receptors [3]; in experiment [5]) were 33% and 38.4%, respectively. In addition, on dopamine D2 receptors [3], the EC50 was 2.81 nM. Further, the Ki was 605 nM on dopamine D2 receptors [4] (read-out: Affinity Ki) and 617 nM at dopamine D2 receptors [4] (read-out: Affinity pKi ± SEM (converted)).

As for `CCOc1cccc2c3c(oc12)CN(CCNC(=O)c1ccccc1)CC3` [I-A35, N-(2-(8-ethoxy-3,4-dihydrobenzofuro[2,3-c]pyridin-2(1H)-yl)ethyl)benzamide], the figures for the maximal effect (Emax) (in experiment [1]; on dopamine D2 receptors [3]; in experiment [5]) were 39.8%, 17% and 102%, respectively. In addition, the EC50 at dopamine D2 receptors [3] came to 3.17 nM.

`CCOc1cccc2c3c(oc12)CN(CCN1CCc2nn(C)c(C)c2C1=O)CC3` [I-A39, 5-(2-(8-ethoxy-3,4-dihydrobenzofuro[2,3-c]pyridin-2(1H)-yl)ethyl)-2,3-dimethyl-2,5,6,7-tetrahydro-4H-pyrazolo[4,3-c]pyridin-4-one]: the Emax in experiment [1] was 20.6%; in experiment [5] it was 82.2%.

Consider `CCOc1cccc2c3c(oc12)CN(CCN1CCCc2ccccc2C1=O)CC3` [I-A40, 2-(2-(8-ethoxy-3,4-dihydrobenzofuro[2,3-c]pyridin-2(1H)-yl)ethyl)-2,3,4,5-tetrahydro-1H-benzo[c]azepin-1-one], for which the Emax in experiment [1] came to 28.9%; in experiment [5], 101%.

Consider `CCOc1cccc2c3c(oc12)CN(CCCCN1C(=O)CC(C)(C)CC1=O)CC3` [I-A45, 1-(4-(8-ethoxy-3,4-dihydrobenzofuro[2,3-c]pyridin-2(1H)-yl)butyl)-4,4-dimethylpiperidine-2,6-dione], for which, at dopamine D2 receptors [3], the maximal response (Emax) worked out at 30% and the EC50 came out at 25.4 nM. Further, the “Affinity pKi ± SEM” value at dopamine D2 receptors [4] is “(6.14 ± 0.15)”. The Ki at dopamine D2 receptors [4] (read-out: Affinity Ki) turned out to be 714 nM. Also, the Emax in experiment [5] was 74.3%.

As to `CCOc1cccc2c3c([nH]c12)CN(CC[C@H]1CC[C@H](NC(=O)N(C)C)CC1)CC3` [I-B8, 3-(trans-4-(2-(8-ethoxy-1,3,4,9-tetrahydro-2H-pyrido[3,4-b]indol-2-yl)ethyl)cyclohexyl)-1,1-dimethylurea], the “Affinity pKi ± SEM” value at dopamine D2 receptors [4] is “(6.41 ± 0.16)”. Further, the Ki on dopamine D2 receptors [4] (read-out: Affinity Ki) was 381 nM. In experiment [5], this molecule returned an Emax of 37.9%.
